{"source": "patent US20250295679A1", "about": "“Compositions and Dosage Forms for Treatment of HPV Infection and HPV-Induced Neoplasia” (priority 2022, published 2025)", "key": {"[1]": {"test": "Solubility in buffers, water and simulated vaginal fluid at 37° C.", "details": "for pH of solution at 2 hours: 37° C.", "method": "About 4 mg of Compound I Pattern 1 was added into 2 mL of buffer solution.\n(§1) Solubility was tested in five media, pH 3.0 citrate buffer, pH 4.5 acetate buffer, pH 6.8 phosphate buffer, water, simulated vaginal fluid (pH 4.2) at 37° C. for 0.5 h and 2 h.\nThe salt amount used is equivalent to 10 mg anhydrous free base. […] The obtained clear solutions were analyzed by pH meter for pH, and solubility was determined by observation.\nas §1"}, "[2]": {"test": "Hygroscopicity by DVS at 25° C.", "type": "physicochemical", "details": "for XRPD after DVS test: 25° C.", "method": "Hygroscopicity was investigated by DVS at 25° C., using the following method: • Method: 40-0-95-0-40% RH, dm/dt=0.002"}, "[3]": {"test": "Polymorph screening by equilibration in solvents", "type": "physicochemical"}, "[4]": {"test": "Hygroscopicity by DVS at 25° C.", "type": "physicochemical", "details": "cycle of 40-0-95-0-45% relative humidity"}, "[5]": {"test": "Bulk (accelerated) stability, one week, HPLC and XRPD", "details": "for Bulk (HPLC) Purity: 1 week", "procedure": "Bulk stability: Accelerated stability experiments were conducted at 25° C./92% RH and 40° C./75% RH in an open container, 60° C. in a tight container for one week.\nSamples were characterized by XRPD and HPLC and inspected for color change.\nAccelerated stability experiments were conducted at 25° C./92% RH in an open container, at 40° C./75% RH in an open container, and at 60° C. in a tight container for one week."}, "[6]": {"details": "37 °C, pH 3, aqueous buffer, thermodynamic from solid"}, "[7]": {"details": "37 °C, pH 4.2, fassgf or other biorelevant, thermodynamic from solid"}, "[8]": {"details": "37 °C, pH 4.5, aqueous buffer, thermodynamic from solid"}, "[9]": {"details": "37 °C, pH 6.8, aqueous buffer, thermodynamic from solid"}, "[10]": {"details": "37 °C, water, thermodynamic from solid"}}}
{"compound": "CCOC(=O)[C@H](C)N[P@](=O)(COCCn1cnc2c(OC)nc(N)nc21)OCc1ccccc1.O=C(O)/C=C/C(=O)O", "note": "(single isomer, unassigned) [Compound III]", "values": [{"measurement": "solubility at 0.5 h", "setting": "[1]; [6]", "value": "> 2000", "unit": "µg/mL"}, {"measurement": "solubility at 2 h", "setting": "[1]; [6]", "value": "> 2000", "unit": "µg/mL"}, {"measurement": "solubility at 0.5 h", "setting": "[1]; [7]", "value": "> 2000", "unit": "µg/mL"}, {"measurement": "solubility at 2 h", "setting": "[1]; [7]", "value": "> 2000", "unit": "µg/mL"}, {"measurement": "solubility at 0.5 h", "setting": "[1]; [8]", "value": "> 2000", "unit": "µg/mL"}, {"measurement": "solubility at 2 h", "setting": "[1]; [8]", "value": "> 2000", "unit": "µg/mL"}, {"measurement": "solubility at 0.5 h", "setting": "[1]; [9]", "value": "> 2000", "unit": "µg/mL"}, {"measurement": "solubility at 2 h", "setting": "[1]; [9]", "value": "> 2000", "unit": "µg/mL"}, {"measurement": "solubility", "setting": "[1]; 37 °C, thermodynamic from solid", "value": "> 2000", "unit": "µg/mL"}, {"measurement": "solubility at 0.5 h", "setting": "[1]; [10]", "value": "> 2000", "unit": "µg/mL"}, {"measurement": "solubility at 2 h", "setting": "[1]; [10]", "value": "> 2000", "unit": "µg/mL"}, {"measurement": "pH of solution at 2 hours", "setting": "[1]; ES1: pH 3.0, 100 mM citrate buffer", "value": 2.83}, {"measurement": "pH of solution at 2 hours", "setting": "[1]; ES2: pH 4.5, 50 mM acetate buffer", "value": 4.12}, {"measurement": "pH of solution at 2 hours", "setting": "[1]; ES3: pH 6.8, 50 mM phosphate buffer", "value": 6.44}, {"measurement": "pH of solution at 2 hours", "setting": "[1]; ES4: Water", "value": 2.78}, {"measurement": "pH of solution at 2 hours", "setting": "[1]; ES5: Simulated vaginal fluid (pH adjusted by 0.1N NaOH)", "value": 5.37}, {"measurement": "Desorp. (%) Cycle 1", "setting": "[2]; DVS 25° C., 0% RH", "value": 0.00, "unit": "%"}, {"measurement": "Desorp. (%) Cycle 2", "setting": "[2]; DVS 25° C., 0% RH", "value": 0.00, "unit": "%"}, {"measurement": "Sorp. (%) Cycle 1", "setting": "[2]; DVS 25° C., 0% RH", "value": 0.00, "unit": "%"}, {"measurement": "Sorp. (%) Cycle 2", "setting": "[2]; DVS 25° C., 0% RH", "value": 0.00, "unit": "%"}, {"measurement": "Desorp. (%) Cycle 1", "setting": "[2]; DVS 25° C., 10% RH", "value": 0.07, "unit": "%"}, {"measurement": "Desorp. (%) Cycle 2", "setting": "[2]; DVS 25° C., 10% RH", "value": 0.07, "unit": "%"}, {"measurement": "Sorp. (%) Cycle 1", "setting": "[2]; DVS 25° C., 10% RH", "value": 0.07, "unit": "%"}, {"measurement": "Sorp. (%) Cycle 2", "setting": "[2]; DVS 25° C., 10% RH", "value": 0.07, "unit": "%"}, {"measurement": "Desorp. (%) Cycle 1", "setting": "[2]; DVS 25° C., 20% RH", "value": 0.15, "unit": "%"}, {"measurement": "Desorp. (%) Cycle 2", "setting": "[2]; DVS 25° C., 20% RH", "value": 0.15, "unit": "%"}, {"measurement": "Sorp. (%) Cycle 1", "setting": "[2]; DVS 25° C., 20% RH", "value": 0.14, "unit": "%"}, {"measurement": "Sorp. (%) Cycle 2", "setting": "[2]; DVS 25° C., 20% RH", "value": 0.14, "unit": "%"}, {"measurement": "Desorp. (%) Cycle 1", "setting": "[2]; DVS 25° C., 30% RH", "value": 0.23, "unit": "%"}, {"measurement": "Desorp. (%) Cycle 2", "setting": "[2]; DVS 25° C., 30% RH", "value": 0.23, "unit": "%"}, {"measurement": "Sorp. (%) Cycle 1", "setting": "[2]; DVS 25° C., 30% RH", "value": 0.22, "unit": "%"}, {"measurement": "Sorp. (%) Cycle 2", "setting": "[2]; DVS 25° C., 30% RH", "value": 0.22, "unit": "%"}, {"measurement": "Desorp. (%) Cycle 1", "setting": "[2]; DVS 25° C., 40% RH", "value": 0.30, "unit": "%"}, {"measurement": "Desorp. (%) Cycle 2", "setting": "[2]; DVS 25° C., 40% RH", "value": 0.32, "unit": "%"}, {"measurement": "Sorp. (%) Cycle 1", "setting": "[2]; DVS 25° C., 40% RH", "value": 0.29, "unit": "%"}, {"measurement": "Sorp. (%) Cycle 2", "setting": "[2]; DVS 25° C., 40% RH", "value": 0.30, "unit": "%"}, {"measurement": "Desorp. (%) Cycle 2", "setting": "[2]; DVS 25° C., 50% RH", "value": 0.41, "unit": "%"}, {"measurement": "Sorp. (%) Cycle 1", "setting": "[2]; DVS 25° C., 50% RH", "value": 0.39, "unit": "%"}, {"measurement": "Desorp. (%) Cycle 2", "setting": "[2]; DVS 25° C., 60% RH", "value": 0.52, "unit": "%"}, {"measurement": "Sorp. (%) Cycle 1", "setting": "[2]; DVS 25° C., 60% RH", "value": 0.47, "unit": "%"}, {"measurement": "Desorp. (%) Cycle 2", "setting": "[2]; DVS 25° C., 70% RH", "value": 0.67, "unit": "%"}, {"measurement": "Sorp. (%) Cycle 1", "setting": "[2]; DVS 25° C., 70% RH", "value": 0.59, "unit": "%"}, {"measurement": "Desorp. (%) Cycle 2", "setting": "[2]; DVS 25° C., 80% RH", "value": 0.81, "unit": "%"}, {"measurement": "Sorp. (%) Cycle 1", "setting": "[2]; DVS 25° C., 80% RH", "value": 0.71, "unit": "%"}, {"measurement": "Desorp. (%) Cycle 2", "setting": "[2]; DVS 25° C., 90% RH", "value": 0.97, "unit": "%"}, {"measurement": "Sorp. (%) Cycle 1", "setting": "[2]; DVS 25° C., 90% RH", "value": 0.92, "unit": "%"}, {"measurement": "Desorp. (%) Cycle 2", "setting": "[2]; DVS 25° C., 95% RH", "value": 1.01, "unit": "%"}, {"measurement": "Sorp. (%) Cycle 1", "setting": "[2]; DVS 25° C., 95% RH", "value": 1.01, "unit": "%"}, {"measurement": "Hygroscopicity", "setting": "[2]; DVS at 25° C., in words", "value": "slightly hygroscopic"}, {"measurement": "XRPD after DVS test", "setting": "[2]; after DVS 40-0-95-0-40% RH", "value": "No form change"}, {"measurement": "XRPD after DVS test", "setting": "[2]; after humidity cycle 40-0-95-0-40% RH, listed as Compound III Pattern 2, monofumarate", "value": "No form change"}, {"measurement": "XRPD after DVS test", "setting": "[2]; after humidity cycle 40-0-95-0-40% RH, monofumarate", "value": "lose one of the peaks"}, {"measurement": "Water uptake", "setting": "[2]; up to / in 95% RH, DVS 25° C.", "value": "about 1.0%"}, {"measurement": "Crystal modification after 1 week equilibration at 25° C.", "setting": "[3]; PS1: IPA", "value": "Compound V Pattern 2"}, {"measurement": "Crystal modification after 1 week equilibration at 25° C.", "setting": "[3]; PS2: Heptanes", "value": "Compound III Pattern 2"}, {"measurement": "Crystal modification after 1 week equilibration at 25° C.", "setting": "[3]; PS3: Water", "value": "Compound III Pattern 3"}, {"measurement": "Crystal modification after 1 week equilibration at 25° C.", "setting": "[3]; PS4: ACN", "value": "Compound III Pattern 4"}, {"measurement": "Crystal modification after 1 week equilibration at 25° C.", "setting": "[3]; PS5: MEK", "value": "Compound III Pattern 5"}, {"measurement": "Crystal modification after 1 week equilibration at 25° C.", "setting": "[3]; PS7: IPA/heptanes (3/10, v/v)", "value": "Compound III Pattern 2"}, {"measurement": "Crystal modification after 1 week equilibration at 25° C.", "setting": "[3]; PS8: water/ACN (2.9/97.1, v/v)", "value": "Compound III Pattern 4"}, {"measurement": "Crystal modification after 1 week equilibration at 25° C.", "setting": "[3]; PS9: IPA/MTBE (1/3, v/v)", "value": "Compound III Pattern 6"}, {"measurement": "Crystal modification after 1 week equilibration at 25° C.", "setting": "[3]; PS10: EA/toluene (1/3, v/v)", "value": "Compound III Pattern 2"}, {"measurement": "Dissociation of the salt during equilibration experiments", "setting": "[3]; equilibration in solvents, 1 week, 25° C.", "value": "dissociation was observed"}, {"measurement": "Fold increase of retained water content over Compound II", "setting": "[4]", "value": 40, "unit": "fold"}, {"measurement": "Stability after exposure to the three conditions", "setting": "[5]; 25° C./92% RH open, 40° C./75% RH open, 60° C. tight container, one week", "value": "good physical stability"}, {"measurement": "Bulk (HPLC) Purity", "setting": "[5]; BS1: solid state, 25° C./92% RH, open container", "value": 98.7, "unit": "%"}, {"measurement": "Bulk (HPLC) Purity", "setting": "[5]; BS2: solid state, 40° C./75% RH, open container", "value": 97.2, "unit": "%"}, {"measurement": "Bulk (HPLC) Purity", "setting": "[5]; BS3: solid state, 60° C., tight container", "value": 97.3, "unit": "%"}, {"measurement": "HPLC purity, Initial", "setting": "[5]; initial chemical purity before storage", "value": 98.8, "unit": "%"}]}
